Source: patent US11981918B2, “Differentiation technique to generate dopaminergic neurons from induced pluripotent stem cells” (CEDARS-SINAI MEDICAL CENTER, priority 2018, dated 2024)
Entries after “also recorded” stand apart in the source; their conditions may differ. Where a SMILES comes first, the peptide text is derived from it. The star is where a group is joined. Cbz = O=C(OCc1ccccc1)*

Assays:
[1] = test system: P53; assay: P53 level in DaN cultures under proteasome inhibition; format: cell-based, human; details: 24 hrs
Text: (§1) […]. Western blot showing synuclein degradation under 24 hrs of MG132 proteosomal inhibitor (e). Western blot showing reduced LAMP1 protein in PD DaNs (f). […]. Data were normalized to 02iCTR for each differentiation and presented as a fold change (g). NIRF detection of oxidized dopamine from D30 DaN lysates (h)
(§2) Protein degradation can be largely divided into protosomal and autophagy/lysosomal degradation pathways.

[2] = test system: α-Synuclein; assay: α-Synuclein level in DaN cultures under proteasome inhibition; format: cell-based, human; details: 24 hrs
Text: as §1, §2

[3] = test system: TH; assay: TH gene expression timecourse of PEP treatment in DaNs; format: cell-based, human; details: roughly 8 hours after initial exposure
Description: (§3) FIG. 5: Treatment with lysosomal agonists and Elevated p-PKCa in PD lines. Western blot and relative band quantifications of d30 DaNs treated with indicated compounds for 72 hours (a). Baseline levels of p-PKCa in d30 DaNs (b). Day 30 DaNs treated with PEP from multiple PD and control lines(c). Timecourse of PEP treatment and synuclein levels (d) Timecourse of PEP treatment SNCA (e) and TH (f) gene expression. Confirmation of elevated synuclein and p-PKCa in addition control and PD lines (g)
(§4) The elevated phosphorylation of PKCa was absent in the undifferentiated iPSCs and no clear pattern was evident in peripheral blood from the individual patients indicating specificity to the differentiated DaNs. […].

[4] = test system: DaN cultures; format: cell-based, human; details: DaN cultures on drug treatment
Text: (§5) It is likely that the toxicity of PEP is more specific to highly proliferative cells whereas our differentiated neurons are largely post mitotoic.

[5] = test system: p-PKCa; assay: Phosphorylated PKC alpha in iPSC-derived DaNs after PEP005 treatment (western blot); format: cell-based, human
[6] = test system: leukemic cell lines and primary AML cells; details: by activating PKCδ and sustained activation of ERK1/2; cited from earlier work
[7] = test system: TH enzyme; assay: TH enzyme amount in iPSC-derived DaNs treated with lysosomal agonists (western blot); format: cell-based, human; details: both control and PD DaNs, treated for 3 days
[8] = test system: TH; assay: In vivo TH in striatum after injection of PEP into the ventricles of WT mice; parameters: species or system mouse; details: WT mice, 0.3, 3 and 30 μM injected into the ventricles, 1 and 5 days post injection
[9] = test system: α-Synuclein; assay: α-Synuclein protein in iPSC-derived DaNs treated with lysosomal agonists (western blot); format: cell-based, human; details: for amount of α-Synuclein protein: DaNs from control lines; for amount of α-Synuclein protein / synuclein levels: treated for 3 days starting at day 27; for synuclein levels: EOSPD DaNs; for α-Synuclein levels: both control and PD DaNs, all treated lines
Text: FIG. 5: Treatment with lysosomal agonists and Elevated p-PKCa in PD lines. […] Baseline levels of p-PKCa in d30 DaNs (b). Day 30 DaNs treated with PEP from multiple PD and control lines(c). Timecourse of PEP treatment and synuclein levels (d) Timecourse of PEP treatment SNCA (e) and TH (f) gene expression.
To test if the Inventors could reduce synuclein levels in our EOSPD DANs through activation of lysosomal specific pathways, the Inventors selected 3 lysosomal agonists. […] Starting at day 27, DaNs were treated for 3 days with the above lysosomal agonists.

[10] = test system: various cancer cell lines and primary acute myeloid leukaemia (AML) cells; details: cited from earlier work
[11] = test system: PKC C1 domains; details: cited from earlier work
[12] = test system: SNCA; assay: SNCA gene expression timecourse of PEP treatment in DaNs; format: cell-based, human; details: 4 hours after PEP treatment
Description: as §3, §4

[13] = test system: synuclein; assay: In vivo synuclein in striatum after injection of PEP into the ventricles of WT mice; parameters: species or system mouse; details: WT mice, 0.3, 3 and 30 μM injected into the ventricles, 1 and 5 days post injection
[14] = test system: LC3; assay: LC3 protein in DaNs after PEP treatment; format: cell-based, human; details: PD cells
[15] = test system: LAMP1; assay: LAMP1 protein in DaNs after PEP treatment; format: cell-based, human; details: PD cells
[16] = test system: cleaved caspase 3 (CC3); assay: Cleaved caspase 3 in DaNs after PEP treatment; format: cell-based, human; details: DaNs on drug treatment, most easily observed in PD cells; listed as PEP
Text: as §4, §5

[17] = test system: PC12 cell model; details: cited from earlier work
[18] = test system: α-Synuclein; details: cited from earlier work
[19] = test system: neurons in Brain-Chip; format: cell-based, human
[20] = time-course, control and PD DaNs

CC(C)C[C@@H](C=O)NC(=O)[C@H](CC(C)C)NC(=O)[C@H](CC(C)C)NC(=O)OCc1ccccc1 [MG132] (Cbz-Leu-Leu-Leu-aldehyde)
P53 level [1]: accumulation of P53 | α-Synuclein levels [2]: no substantial change

C/C=C(/C)C(=O)O[C@H]1C(C)=C[C@]23C(=O)[C@@H](C=C(CO)[C@@H](O)[C@]12O)[C@H]1[C@@H](C[C@H]3C)C1(C)C [PEP005, ingenol-3-angelate]
TH gene expression [3]: upregulated | LDH [4]: nor do the Inventors see an increase in LDH | phosphorylation of PKCa ([5]; 1 μM for 3 days, DaNs from all iPSC lines): clearly ablated | PKC alpha phosphorylation signal ([5]; control and PD DaNs, at endpoint of 72 hours treatment): completely ablating this signal | time in which p-PKCa is degraded in response to drug treatment [5, 20]: ≤ 24 h | apoptosis [6]: induces apoptosis | amount of TH enzyme [7]: increased amount of TH enzyme | amount of TH enzyme ([7]; listed as PEP): increase in the amount of TH | TH in mouse striatum [8]: increase in TH | amount of α-Synuclein protein [9]: significantly reduced | synuclein levels [9]: substantially reduced | α-Synuclein levels [9]: reduced | α-Synuclein levels ([9]; listed as PEP): reduced synuclein in all treated lines | time in which α-Synuclein is degraded in response to drug treatment [9, 20]: ≤ 24 h | proliferation [10]: inhibiting proliferation | selectivity for individual PKC isoforms [11]: no selectivity | SNCA gene expression [12]: downregulated | synuclein in mouse striatum [13]: Reduction of synuclein | LC3 response [14]: neither LAMP1 nor LC3 respond | LAMP1 response [15]: does not appear to be replicated | LAMP1 response ([15]; listed as PEP): neither LAMP1 nor LC3 respond | cleaved (active) caspase 3 [16]: marked decrease; also recorded: decrease in the amount of active caspase 3

C=CCNc1ncnc2ccc(Br)cc12 [SMER28]
amount of α-Synuclein protein [9]: significantly reduced | synuclein levels [9]: only the PKC agonist PEP005 substantially reduced synuclein levels | Huntington and α-Synuclein aggregates [17]: reduce

OC[C@H]1O[C@H](O[C@H]2O[C@H](CO)[C@@H](O)[C@H](O)[C@H]2O)[C@H](O)[C@@H](O)[C@@H]1O [Trehalose]
amount of α-Synuclein protein [9]: not Trehalose significantly reduced | synuclein levels [9]: only the PKC agonist PEP005 substantially reduced synuclein levels | clearance of α-Synuclein [18]: promote clearance

NC1=N[C@H](O)[C@H]2[C@H]3O[C@]4(O)O[C@@H]([C@@H](O)[C@@]2(N1)[C@@H]4O)[C@]3(O)CO [tetrodotoxin]
neuron activity (calcium imaging) [19]: Neuron activity ablated
